Assay results from patent US20020127717A1, “Preparation of replicating macrophages and use in diagnosis and therapy” (priority 2000, published 2002).

Tests used:
[1] = target: T1, Ulex Europaeus-I Agglutimin (UEA-I) (Ulex europaeus, UniProt P22972); experiment: FITC-UEA-I lectin binding to acetone-fixed cells, specificity control; details: 0.2M, room temperature, 30 minutes preincubation
T1 construct: purchased Vector Laboratories, Inc
T1 sequence (P22972 1-243): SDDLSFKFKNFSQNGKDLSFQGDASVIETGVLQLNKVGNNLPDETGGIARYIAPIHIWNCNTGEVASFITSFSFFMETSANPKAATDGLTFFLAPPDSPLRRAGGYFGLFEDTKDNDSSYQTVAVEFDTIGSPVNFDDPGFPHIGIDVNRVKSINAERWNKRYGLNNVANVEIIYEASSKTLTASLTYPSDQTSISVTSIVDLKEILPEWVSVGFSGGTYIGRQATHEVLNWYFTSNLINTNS
Protocol: FITC-conjugated Ulex Europaeus-I Agglutimin (UEA-I) (Vector Laboratories, Inc.) was incubated with acetone-fixed cells at 37° C. for 1 hour. The specificity of UEA-I, the lectin was determined by preincubating with 0.2M […] (Sigma), at room temperature for 30 minutes.

[2] = system: human Kupffer cell isolates (KC-1, KC-2, KC-3); experiment: DNA synthesis assay (3H-Thymidine), stimulation by growth factors, Kupffer cell isolates; assay type: cell-based; design: key to Stimulation Index of Cultured Target cells: ratio: uptake with stimulatory agent / uptake in medium alone; details: for effect on DNA synthesis of KC isolates (in words): KC isolates grown 21 days in MCG medium, summary of Table 3
Protocol: (§1) DNA Synthesis Assay: DNA synthesis was determined by culturing the cells with ^3H-Thymidine as is standard in the art. The KC isolates used in the assay were at day 21 post liver isolation. The normal endothelial cells and foreskin fibroblasts were cultured in media consisting of RPMI-1640, fetal bovine serum 20% supplemented with specific factors as described in Nakamura S and Salahuddin SZ, Science 242: 426-430,1988. KC isolates were cultured as described above. Cells were harvested between 4 hours and 18 hours culture depending on the stimulatory agent used. A stimulation index was calculated by dividing radioactivity incorporated into cells with the stimulatory agent versus cells in culture medium alone.
(§2) Various growth factors were tested for their ability to stimulate growth of the human Kupffer cell isolates (KC-3) and other cell types. KC isolates used in this experiment were grown in culture for 21 days with MCG medium.

[3] = system: Human Umbilical Vein Endothelial Cells (HUV-E); experiment: DNA synthesis assay (3H-Thymidine), stimulation by growth factors, HUVE; assay type: cell-based
Protocol: as §1
(§3) Cultured Cells: Human umbilical vein endothelial cells (HUV-E) were prepared as described in Nakamura et al, Science 1988. Bovine capillary endothelial cells (BCE) were a gift from Dr. Peter Biberfeld of Karolinska Institute, Stockholm, Sweden. Normal human foreskin fibroblasts (HSF) were obtained from the American Type Tissue Culture Collection (ATCC), Rockville, Md. (CRL-1635).
as §2

[4] = system: Bovine Capillary Endothelial Cells (BCE); experiment: DNA synthesis assay (3H-Thymidine), stimulation by growth factors, BCE; assay type: cell-based
Protocol: as §1, §3, §2

[5] = system: Human Foreskin Fibroblast Cells (HSF); experiment: DNA synthesis assay (3H-Thymidine), stimulation by growth factors, HSF; assay type: cell-based; details: HFS
Protocol: as §1, §3, §2

[6] = system: human Kupffer cell isolates (KC-1, KC-2, KC-3); experiment: DNA synthesis assay (3H-Thymidine), stimulation by growth factors, Kupffer cell isolates; assay type: cell-based; design: key: ratio: uptake with stimulatory agent / uptake in medium alone

## O=C(CO)[C@H](O)[C@@H](O)[C@@H](O)CO [L-fructose]
[1]
  binding of UEA-I after preincubating the lectin: No binding was observed

## BFGF: bFGF = Fibroblast Growth Factor β, Lot # 14765800, Boehringer Manheim
[2]
  effect on DNA synthesis of KC isolates (in words): little to no effect
[2]; KC-3, HC (hydrocortisone) +
  Stimulation Index of Cultured Target cells: 1.2
[2]; KC-3, HC (hydrocortisone) −
  Stimulation Index of Cultured Target cells: 1.2
[3]; HC (hydrocortisone) +
  Stimulation Index of Cultured Target cells: 15.4
[3]; HC (hydrocortisone) −
  Stimulation Index of Cultured Target cells: 35.4
[4]; HC (hydrocortisone) +
  Stimulation Index of Cultured Target cells: 2.3
[4]; HC (hydrocortisone) −
  Stimulation Index of Cultured Target cells: 6.2
[5]; HC (hydrocortisone) +
  Stimulation Index of Cultured Target cells: 1.9
[5]; HC (hydrocortisone) −
  Stimulation Index of Cultured Target cells: 2.2
[6]; KC-1, HC (hydrocortisone) +
  Stimulation Index of Cultured Target cells: 0.5
[6]; KC-1, HC (hydrocortisone) −
  Stimulation Index of Cultured Target cells: 0.8
[6]; KC-2, HC (hydrocortisone) +
  Stimulation Index of Cultured Target cells: 0.5
[6]; KC-2, HC (hydrocortisone) −
  Stimulation Index of Cultured Target cells: 0.6

## EGF: epidermal growth factor
[2]
  effect on DNA synthesis of KC isolates (in words): little to no effect
[2]; KC-3, HC (hydrocortisone) +
  Stimulation Index of Cultured Target cells: 0.6
[2]; KC-3, HC (hydrocortisone) −
  Stimulation Index of Cultured Target cells: 1.2
[3]; HC (hydrocortisone) −
  Stimulation Index of Cultured Target cells: 25.4
[4]; HC (hydrocortisone) +
  Stimulation Index of Cultured Target cells: 2.9
[4]; HC (hydrocortisone) −
  Stimulation Index of Cultured Target cells: 6.8
[5]; HC (hydrocortisone) +
  Stimulation Index of Cultured Target cells: 1.1
[5]; HC (hydrocortisone) −
  Stimulation Index of Cultured Target cells: 2.8
[6]; KC-1, HC (hydrocortisone) +
  Stimulation Index of Cultured Target cells: 0.9
[6]; KC-1, HC (hydrocortisone) −
  Stimulation Index of Cultured Target cells: 1.2
[6]; KC-2, HC (hydrocortisone) +
  Stimulation Index of Cultured Target cells: 0.9
[6]; KC-2, HC (hydrocortisone) −
  Stimulation Index of Cultured Target cells: 1.1

## PDGF
[2]
  effect on DNA synthesis of KC isolates (in words): little to no effect
[2]; KC-3, HC (hydrocortisone) +
  Stimulation Index of Cultured Target cells: 1.1
[2]; KC-3, HC (hydrocortisone) −
  Stimulation Index of Cultured Target cells: 1.4
[3]; HC (hydrocortisone) +
  Stimulation Index of Cultured Target cells: 20.2
[3]; HC (hydrocortisone) −
  Stimulation Index of Cultured Target cells: 10.0
[4]; HC (hydrocortisone) +
  Stimulation Index of Cultured Target cells: 1.8
[4]; HC (hydrocortisone) −
  Stimulation Index of Cultured Target cells: 4.4
[5]; HC (hydrocortisone) +
  Stimulation Index of Cultured Target cells: 1.5
[5]; HC (hydrocortisone) −
  Stimulation Index of Cultured Target cells: 1.4
[6]; KC-1, HC (hydrocortisone) +
  Stimulation Index of Cultured Target cells: 1.1
[6]; KC-1, HC (hydrocortisone) −
  Stimulation Index of Cultured Target cells: 1.2
[6]; KC-2, HC (hydrocortisone) +
  Stimulation Index of Cultured Target cells: 1.2
[6]; KC-2, HC (hydrocortisone) −
  Stimulation Index of Cultured Target cells: 1.4

## TNFα
[2]; KC-3, HC (hydrocortisone) +
  Stimulation Index of Cultured Target cells: 1.2
[3]; HC (hydrocortisone) +
  Stimulation Index of Cultured Target cells: 1.0
[4]; HC (hydrocortisone) +
  Stimulation Index of Cultured Target cells: 1.2
[5]; HC (hydrocortisone) +
  Stimulation Index of Cultured Target cells: 0.8
[6]; KC-1, HC (hydrocortisone) +
  Stimulation Index of Cultured Target cells: 0.8
[6]; KC-2, HC (hydrocortisone) +
  Stimulation Index of Cultured Target cells: 0.9
